Results from PubChem BioAssay (NCI).
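Exposure lasted 48 hours, with cells grown in 96-well plates and compounds tested at five concentrations. The concentration for 50% growth inhibition is given as GI50. TGI: concentration producing complete growth inhibition.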

How the values were obtained:
Experiment in all cases: NCI-60 cell line screen, 48 h
SW-620 colon = tested on: SW-620 colon
OVCAR-3 ovarian = tested on: OVCAR-3 ovarian
SNB-75 CNS = tested on: SNB-75 CNS
SK-OV-3 ovarian = tested on: SK-OV-3 ovarian
SK-MEL-5 melanoma = tested on: SK-MEL-5 melanoma
NCI-H522 lung = tested on: NCI-H522 lung
NCI-H226 lung = tested on: NCI-H226 lung
SK-MEL-28 melanoma = tested on: SK-MEL-28 melanoma
SF-539 CNS = tested on: SF-539 CNS
HL-60(TB) leukemia = tested on: HL-60(TB) leukemia

SMILES | GI50 (SW-620 colon) [µM] | TGI (SW-620 colon) [µM] | GI50 (OVCAR-3 ovarian) [µM] | TGI (OVCAR-3 ovarian) [µM] | GI50 (SNB-75 CNS) [µM] | TGI (SNB-75 CNS) [µM] | GI50 (SK-OV-3 ovarian) [µM] | TGI (SK-OV-3 ovarian) [µM] | GI50 (SK-MEL-5 melanoma) [µM] | TGI (SK-MEL-5 melanoma) [µM] | GI50 (NCI-H522 lung) [µM] | TGI (NCI-H522 lung) [µM] | GI50 (NCI-H226 lung) [µM] | TGI (NCI-H226 lung) [µM] | GI50 (SK-MEL-28 melanoma) [µM] | TGI (SK-MEL-28 melanoma) [µM] | GI50 (SF-539 CNS) [µM] | TGI (SF-539 CNS) [µM] | GI50 (HL-60(TB) leukemia) [µM] | TGI (HL-60(TB) leukemia) [µM]
Nc1c(C(=O)c2ccccc2)sc2nc(-c3cccs3)ccc12 | 0.0734 | 11.1 | 0.0468 | 1.05 | 0.187 | 1.42 | 0.389 | 18.4 | 0.292 | 3.13 | 0.0178 | 0.0567 | 2.11 | 12.5 | 1.49 | > 100 | 0.25 | 1.24 |  | 
O=C(Nc1ccc(Cl)cc1)Nc1ccc(Cl)c(Cl)c1 | 3.95 | > 100 | 3.31 | > 100 | 2.59 | > 100 |  |  | 1.72 | 3.42 | 4.15 | > 100 |  |  | 6.07 | > 100 | 2.96 | 60.4 | 2.84 | 7.69
CC1CC(c2ccccc2)=Nc2ccccc2S1(=O)=O (stereo unspecified) |  | 31.6 |  | 32.8 |  | 35.9 |  | 36.4 |  | 32.5 |  | 31 |  |  |  | 29.8 |  | 34.1 |  | 52.8
CC(=O)N/C(=C\c1ccc(/C=C(\NC(C)=O)c2nc3ccc(Cl)cc3[nH]2)cc1)c1nc2ccccc2[nH]1 |  | > 100 |  | > 100 |  | > 100 |  | > 100 |  | > 100 |  | > 100 |  | > 100 |  | > 100 |  | > 100 |  | 
Cc1cc2nc3c(C(OC4OC(CO)C(O)C(O)C4O)C(O)CO)nn(-c4ccccc4)c3nc2cc1C (stereo unspecified) |  |  |  | > 100 |  | > 100 |  | > 100 |  |  |  | > 100 |  |  |  | > 100 |  | > 100 |  | 
Cc1nn(C(=O)c2ccccc2O)c2c1C(c1ccccc1)SC(N)=N2 (stereo unspecified) |  | > 10 |  | 7.22 |  |  |  | > 10 |  | > 10 |  | > 10 |  | 7.38 |  | > 10 |  | 0.621 |  | 3.58
CCCCC#COP(=O)(OCC)OCC |  | > 100 |  | > 100 |  |  |  | > 100 |  | > 100 |  | > 100 |  | > 100 |  |  |  | > 100 |  | > 100
Nc1ccc(C(=O)N/C(=C\C=C\c2ccco2)c2nc3[nH]c(=S)[nH]c(=O)c3[nH]2)cc1 |  | > 100 |  | > 100 |  |  |  | > 100 |  | > 100 |  | > 100 |  |  |  | > 100 |  | > 100 |  | 
CCN(CC)CCCCC1CCN(CC(=O)N2CC(C)C(=O)Nc3ccccc32)CC1 (stereo unspecified) |  | > 100 |  | > 100 |  |  |  | > 100 |  | > 100 |  |  |  | > 100 |  | > 100 |  |  |  | > 100
c1cnc2c(c1)-n1cccc1C1(CCSCC1)NN2 |  | > 100 |  | > 100 |  | > 100 |  |  |  | > 100 |  | > 100 |  | > 100 |  | > 100 |  | > 100 |  | > 100
CC1(C)C=CC[C@]2(C)[C@H]3CC[C@@H]4[C@H]5[C@H](C(=O)/C=C/c6cccnc6)CC[C@]5(CO)CC[C@@]4(C)[C@]3(C)CC[C@@H]12 | 1 | 2.31 | 1.37 | 2.71 |  |  | 1.78 | 3.62 | 1.46 | 2.79 | 1.19 | 2.74 | 1.33 | 3.08 | 1.54 | 2.98 | 1.5 | 2.87 | 0.304 | 1.89
